Patent US11925679B2, “H3.3 CTL peptides and uses thereof” (The Regents of the University of California, priority 2015, dated 2024)

Assays:
[1] = test system: HLA-A*0201+ donor-derived PBMCs; assay: In vitro stimulation of donor PBMCs with peptide, tetramer staining of CD8+ T-cells
Method: Peripheral blood mononuclear cells from an HLA-A ? + donor were stimulated in vitro with the H3.3.K27M peptide and evaluated for their reactivity against: (1A) HLA-A ? /H3.3.K27M-specific tetramer and anti-CD8 mAb, and (1B) T2 cells pulsed with the mutant or non-mutated H3.3 peptide by IFN-γ ELISA.
Induction and isolation of H3.3K27M-specific CTL clones. To generate dendritic cells, the plastic adherent cells from PBMCs were cultured in AIM-V medium (Invitrogen) supplemented with 1,000 units/mL recombinant human granulocyte macrophage colony-stimulating factor and 500 units/mL recombinant human IL-4 (rhIL-4; Cell Sciences) at 37° C. in a humidified CO2 (5%) incubator. Six days later, the immature dendritic cells were stimulated with recombinant human tumor necrosis factor-α, IL-6, and IL-1 (10 ng/mL each). Mature dendritic cells were then harvested on day 8, resuspended in AIM-V medium at 1×10^6 cells per mL with peptide (10 μg/mL), and incubated for 2 hours at 37° C. Populations of autologous CD8^+ T-cells were enriched from PBMCs using magnetic microbeads (Miltenyi Biotech). CD8^+ T-cells (2×10^6 per well) were co-cultured with 2×10^5 per well peptide-pulsed dendritic cells in 2 mL/well of AIM-V medium supplemented with 5% human AB serum, 10 units/mL rhIL-2 (R&D Systems, Minneapolis, Minn.), and 10 units/mL rhIL-7 (Cell Sciences) in each well of 24-well tissue culture plates. On day 15, lymphocytes were re-stimulated with autologous dendritic cells pulsed with peptide in AIM-V medium supplemented with 5% human AB serum, rhIL-2, and rhIL-7 (10 units/mL each).
HLA-A*0201-peptide tetramer staining. […] (SEQ ID NO:2) tetramer (H3.3K27M-tetramer) was produced by the National Institute of Allergy and Infectious Disease tetramer facility within the Emory University Vaccine Center (Atlanta, Ga.) using the peptide synthesized by A&A labs (San Diego; CA). […] Cells were then washed with FACS Buffer (PBS containing 1% FBS). For some experiments, T-cells were stained with tetramer, followed by anti-human CD8 APC (Biolegend, 344722) and anti-human CD69 FITC (eBioscience, 11-0699-42).

[2] = test system: purified HLA-A2 class I molecules; assay: Competitive binding inhibition assay with purified HLA-A2 and radiolabeled probe peptide; set-up: species or system human; conditions: cell-free binding assay, FIG. 8A

Sequence	CD8+tetramer+ population ([1]; FIG. 2A)	tetramer high subpopulation ([1]; FIG. 2A)	CD8+ cells bound to the HLA-A*0201-H3.3.K27M (26-35) tetramer ([1]; several weekly stimulation cycles in vitro)	affinity to HLA-A*0201 relative to H3.3.K27M (26-35) [2]
RMSAPSTGGV [H3.3.K27M (26-35)]	64.1 % of total lymphocyte-gated cells	2.4 % of total lymphocyte-gated cells	over 60%	–
XMSAPSTGGV [Cit H3.3]	–	–	–	partially retains its affinity
